In PMC6792352, “Limited Chemical Structural Diversity Found to Modulate Thyroid Hormone Receptor in the Tox21 Chemical Library” (Environmental Health Perspectives, 2019):
Where a name gives a salt, the structure may show the parent alone.

Test: in vitro
Conditions: rat, gh3-tre-luc cells

C/C(=C\c1csc(C)n1)[C@@H]1C[C@@H]2O[C@]2(C)CCC[C@H](C)[C@H](O)[C@@H](C)C(=O)C(C)(C)[C@@H](O)CC(=O)O1 [Epothilone B]
CC50 at 24 h (AC50 (uM) modified / 1000): 0.00955 µM

Nc1cnn(-c2ccccc2)c(=O)c1Cl [Chloridazon]
CC50 at 24 h (AC50 (uM) modified / 1000): > 90 µM

CCCCCCCC(=O)Cl [Caprylyl chloride]
CC50 at 24 h (AC50 (uM) modified / 1000): > 90 µM

Cc1nc2ccccc2s1 [2-Methylbenzothiazole]
CC50 at 24 h (AC50 (uM) modified / 1000): > 90 µM

C=CCN1C[C@H](C(=O)N(CCCN(C)C)C(=O)NCC)C[C@@H]2c3cccc4[nH]cc(c34)C[C@H]21 [Cabergoline]
CC50 at 24 h (AC50 (uM) modified / 1000): 5.04 µM

SCCCCCCCCS [1,8-Octanedithiol]
CC50 at 24 h (AC50 (uM) modified / 1000): > 90 µM

C[C@]12CCC(=O)C=C1CC[C@@H]1[C@@H]2CC[C@]2(C)C(=O)CC[C@@H]12 [4-Androstene-3,17-dione]
CC50 at 24 h (AC50 (uM) modified / 1000, Tox21_110001=Tox21_110893, viability, 1 nM T3 present, 24 h): > 50 µM
CC50 at 24 h (AC50 (uM) modified / 1000, Tox21_110001=Tox21_202269, viability, 1 nM T3 present, 24 h): > 90 µM

CC(CCl)OC(C)CCl (stereo not drawn) [bis(2-Chloro-1-methylethyl) ether]
CC50 at 24 h (AC50 (uM) modified / 1000): > 90 µM

CC1OC(C)OC(C)O1 (stereo not drawn) [Paraldehyde]
CC50 at 24 h (AC50 (uM) modified / 1000, Tox21_110001=Tox21_111607, viability, 1 nM T3 present, 24 h): > 50 µM
CC50 at 24 h (AC50 (uM) modified / 1000, Tox21_110001=Tox21_301299, viability, 1 nM T3 present, 24 h): > 90 µM

C=CCOC(=O)/C=C\C(=O)OCC=C [Diprop-2-en-1-yl (2Z)-but-2-enedioate]
CC50 at 24 h (AC50 (uM) modified / 1000): > 90 µM

Brc1ccc(Oc2cc(Br)c(Br)cc2Br)c(Br)c1 [2,2',4,4',5-Pentabromodiphenyl ether]
CC50 at 24 h (AC50 (uM) modified / 1000, Tox21_110001=Tox21_200156, viability, 1 nM T3 present, 24 h): > 90 µM

Nc1ccc(Cc2ccc(N)cc2)cc1 [4,4'-Methylenedianiline]
CC50 at 24 h (AC50 (uM) modified / 1000, Tox21_110001=Tox21_201723, viability, 1 nM T3 present, 24 h): > 90 µM

CCCCOC(=O)c1ccc(O)cc1 [Butylparaben]
CC50 at 24 h (AC50 (uM) modified / 1000): > 50 µM

Cc1ccc(C)c(O)c1C [2,3,6-Trimethylphenol]
CC50 at 24 h (AC50 (uM) modified / 1000): > 90 µM

C[C@H]1O[C@H](O[C@H]2[C@H](O)[C@@H](O)[C@@H](O[C@@H]([C@H](O)[C@@H](O)C=O)[C@H](O)CO)O[C@@H]2CO)[C@H](O)[C@@H](O)[C@@H]1N[C@H]1C=C(CO)[C@@H](O)[C@H](O)[C@H]1O [Acarbose]
CC50 at 24 h (AC50 (uM) modified / 1000): > 50 µM

CCCCc1ccc(C(=O)O)nc1 [Fusaric acid]
CC50 at 24 h (AC50 (uM) modified / 1000, Tox21_110001=Tox21_110149, viability, 1 nM T3 present, 24 h): > 50 µM

O=C(NC(=O)c1c(F)cccc1F)Nc1cc(Cl)c(OC(F)(F)C(F)F)c(Cl)c1 [Hexaflumuron]
CC50 at 24 h (AC50 (uM) modified / 1000): > 90 µM

CCCCSCCCC [Dibutyl sulfide]
CC50 at 24 h (AC50 (uM) modified / 1000): > 90 µM

NCC(=O)O [Glycine]
CC50 at 24 h (AC50 (uM) modified / 1000): > 50 µM

O=C(c1ccccc1)C1CCC1 [Cyclobutyl phenyl ketone]
CC50 at 24 h (AC50 (uM) modified / 1000): > 90 µM

CCOCCOCC [Ethylene glycol diethyl ether]
CC50 at 24 h (AC50 (uM) modified / 1000): > 100 µM

CC(CN1c2ccccc2Sc2ccc(S(=O)(=O)N(C)C)cc21)N(C)C (stereo not drawn) [Fonazine]
CC50 at 24 h (AC50 (uM) modified / 1000): 21.4 µM

CC/C=C\CCOC(=O)CCCCC [(3Z)-Hex-3-en-1-yl hexanoate]
CC50 at 24 h (AC50 (uM) modified / 1000): > 90 µM

Cc1ncc(COP(=O)(O)O)c(CN)c1O [Pyridoxamine phosphate]
CC50 at 24 h (AC50 (uM) modified / 1000): > 50 µM

CC(COC(C)(C)C)OCCCO (stereo not drawn) [Di(propylene glycol) tert-butyl ether]
CC50 at 24 h (AC50 (uM) modified / 1000): > 90 µM

COc1ccc(-c2cc(=S)ss2)cc1 [Anethole trithione]
CC50 at 24 h (AC50 (uM) modified / 1000): > 50 µM

COc1ccccc1N1CCN(CCCCNC(=O)c2ccc(-c3ccc(C(C)=O)cc3)cc2)CC1 [GR 103691]
CC50 at 24 h (AC50 (uM) modified / 1000): > 50 µM

O=Cc1ccc2c(c1)OCO2 [Piperonal]
CC50 at 24 h (AC50 (uM) modified / 1000, Tox21_110001=Tox21_200120, viability, 1 nM T3 present, 24 h): > 90 µM

C=CC(=O)OCCCCOC(=O)C=C [1,4-Butanediol diacrylate]
CC50 at 24 h (AC50 (uM) modified / 1000): 17.5 µM

Cc1ccccc1S [2-Methylbenzenethiol]
CC50 at 24 h (AC50 (uM) modified / 1000): > 70 µM

CCCCCCCCCCCCCCCCCC[N+](C)(C)CCC[Si](OC)(OC)OC [N,N-Dimethyl-N-(3-(trimethoxysilyl)propyl) octadecan-1-aminium chloride]
CC50 at 24 h (AC50 (uM) modified / 1000): > 50 µM

Oc1cc2ccccc2c2ccccc12 [9-Phenanthrol]
CC50 at 24 h (AC50 (uM) modified / 1000): 6.81 µM

N[C@@H](CSSC[C@H](N)C(=O)O)C(=O)O [L-Cystine]
CC50 at 24 h (AC50 (uM) modified / 1000): > 50 µM

c1ccc(-c2ccc(-c3ccccc3)cc2)cc1 [1,1':4',1''-Terphenyl]
CC50 at 24 h (AC50 (uM) modified / 1000): > 20 µM

[H]/N=C(/N)NS(=O)(=O)c1ccc(N)cc1 [Sulfaguanidine]
CC50 at 24 h (AC50 (uM) modified / 1000): > 20 µM

O=CN1CCOCC1 [4-Morpholinecarboxaldehyde]
CC50 at 24 h (AC50 (uM) modified / 1000): > 90 µM

CCCC(C)C1(CC)C(=O)NC(=O)NC1=O (stereo not drawn) [Pentobarbital]
CC50 at 24 h (AC50 (uM) modified / 1000): > 50 µM

COC(=O)c1ccc(C(=O)OC)c(C(=O)OC)c1 [Trimethyl benzene-1,2,4-tricarboxylate]
CC50 at 24 h (AC50 (uM) modified / 1000): > 90 µM

CCCCCCC(O)CO (stereo not drawn) [1,2-Octanediol]
CC50 at 24 h (AC50 (uM) modified / 1000): > 90 µM

CCCCCCCOC(=O)CCC [Heptyl butanoate]
CC50 at 24 h (AC50 (uM) modified / 1000): > 90 µM

CC1=C(C(=O)OCCN(Cc2ccccc2)c2ccccc2)C(c2cccc([N+](=O)[O-])c2)C(P2(=O)OCC(C)(C)CO2)=C(C)N1 (stereo not drawn) [Efonidipine]
CC50 at 24 h (AC50 (uM) modified / 1000): 23.8 µM

CC(C)CCCCCCOC(=O)c1ccccc1C(=O)OCCCCCCC(C)C [Diisononyl phthalate]
CC50 at 24 h (AC50 (uM) modified / 1000): > 90 µM

COc1ccc(CNCC(O)COc2ccc3[nH]c(=O)ccc3c2)cc1OC (stereo not drawn) [Toborinone]
CC50 at 24 h (AC50 (uM) modified / 1000): > 50 µM

Cc1ccc(S(=O)(=O)NC(=O)NN2CCCCCC2)cc1 [Tolazamide]
CC50 at 24 h (AC50 (uM) modified / 1000): > 90 µM

CCCN1CCC[C@@H]2Cc3nc(N)ncc3C[C@H]21 [Quinelorane]
CC50 at 24 h (AC50 (uM) modified / 1000): > 50 µM

OCCBr [2-Bromo-1-ethanol]
CC50 at 24 h (AC50 (uM) modified / 1000, Tox21_110001=Tox21_201036, viability, 1 nM T3 present, 24 h): > 90 µM

CO/N=C(/C(=O)OC)c1ccccc1COc1ccccc1C [Kresoxim-methyl]
CC50 at 24 h (AC50 (uM) modified / 1000): > 90 µM

NC[C@H]1CC[C@H](C(=O)Oc2ccc(CCC(=O)O)cc2)CC1 [Cetraxate hydrochloride]
CC50 at 24 h (AC50 (uM) modified / 1000): > 50 µM

CC(=O)Nc1cc([As](=O)(O)O)ccc1O [Acetarsol]
CC50 at 24 h (AC50 (uM) modified / 1000, Tox21_110001=Tox21_111336, viability, 1 nM T3 present, 24 h): > 50 µM

C=C[C@H]1C[N@@]2CC[C@H]1C[C@@H]2[C@@H](O)c1ccnc2ccccc12 [Cinchonine]
CC50 at 24 h (AC50 (uM) modified / 1000): > 50 µM

Cc1ccc(N)cc1S(=O)(=O)O [5-Amino-2-methylbenzenesulfonic acid]
CC50 at 24 h (AC50 (uM) modified / 1000): > 90 µM

CCCC(=O)OC(=O)CCC [Butanoic anhydride]
CC50 at 24 h (AC50 (uM) modified / 1000): > 90 µM

CCCCNC(C)(C)[PH](=O)O [Butafosfan]
CC50 at 24 h (AC50 (uM) modified / 1000): > 50 µM

NNC(=O)OCc1ccccc1 [Hydrazinecarboxylic acid, phenylmethyl ester]
CC50 at 24 h (AC50 (uM) modified / 1000): > 90 µM

CCCC=O [Butyraldehyde]
CC50 at 24 h (AC50 (uM) modified / 1000): > 90 µM

O=C(O)[C@@H]1[C@H](C(=O)O)[C@H]2CC[C@@H]1O2 [Endothal]
CC50 at 24 h (AC50 (uM) modified / 1000): > 90 µM

O=C1c2ccccc2C(=O)N1CCc1noc(-c2ccc(CN3CCCCCC3)s2)n1 [PharmaGSID_48172]
CC50 at 24 h (AC50 (uM) modified / 1000): > 80 µM

CCOP(=S)(OCC)O/N=C(\C#N)c1ccccc1 [Phoxim]
CC50 at 24 h (AC50 (uM) modified / 1000, Tox21_110001=Tox21_113357, viability, 1 nM T3 present, 24 h): > 50 µM
CC50 at 24 h (AC50 (uM) modified / 1000, Tox21_110001=Tox21_301580, viability, 1 nM T3 present, 24 h): > 90 µM

O=[N+]([O-])c1cccc2cccnc12 [8-Nitroquinoline]
CC50 at 24 h (AC50 (uM) modified / 1000): > 90 µM

COc1ccc(C(=O)/N=c2\[nH]c3ccccc3c(NCc3ccccc3)c2C#N)cc1 [SSR161421]
CC50 at 24 h (AC50 (uM) modified / 1000): > 90 µM

CCCCCCCCCCCCCCCC/C=C/C1CC(=O)OC1=O (stereo not drawn) [Dihydro-3-(octadecenyl)-2,5-furandione]
CC50 at 24 h (AC50 (uM) modified / 1000): 36 µM

CC(=O)Oc1ccc([N+](=O)[O-])cc1CCl [2-Acetoxy-5-nitrobenzyl chloride]
CC50 at 24 h (AC50 (uM) modified / 1000): 67 µM

O=C(N[C@H](CO)[C@H](O)c1ccc([N+](=O)[O-])cc1)C(Cl)Cl [Chloramphenicol]
CC50 at 24 h (AC50 (uM) modified / 1000): > 90 µM

Nc1ccc2ccccc2c1S(=O)(=O)O [2-Amino-1-naphthalenesulfonic acid]
CC50 at 24 h (AC50 (uM) modified / 1000): > 90 µM

NS(=O)(=O)c1cc(-c2nnn[nH]2)c(NCc2cccs2)cc1Cl [Azosemide]
CC50 at 24 h (AC50 (uM) modified / 1000): > 50 µM

CCCCCC(O)/C=C/C=O (stereo not drawn) [(2E)-4-Hydroxy-2-nonenal]
CC50 at 24 h (AC50 (uM) modified / 1000): > 50 µM

CC(C)CCON=O [3-Methylbutyl nitrite]
CC50 at 24 h (AC50 (uM) modified / 1000, Tox21_110001=Tox21_111074, viability, 1 nM T3 present, 24 h): > 50 µM
CC50 at 24 h (AC50 (uM) modified / 1000, Tox21_110001=Tox21_200983, viability, 1 nM T3 present, 24 h): > 90 µM

Cc1ccn2nc(S(=O)(=O)Nc3c(F)cccc3F)nc2n1 [Flumetsulam]
CC50 at 24 h (AC50 (uM) modified / 1000): > 90 µM
